Reference: the SangsterLogP compilation

Assays:
[1] = method code SF, from DOI: 10.1021/jm00167a034, PMID: 2329572; details: pH 7.4
[2] = pH 7.4
[3] = method code SF-GLC, from DOI: 10.1021/es60155a010
[4] = method code SF, from DOI: 10.1021/jm020886c, PMID: 12852752; details: pH 7.4
[5] = not given; remark: listed apart in the source
[6] = from Jayashree, Bs.; Sahu, A.; MM, S.; Venugopala, K. (2006). Synthesis, characterization and determination of partition coefficient of some triazolo thiadiazinyl chlorocoumarin derivatives for their …; details: pH 7.4
[7] = method code SF-AS, from DOI: 10.1002/etc.5620180606

Cc1cn([C@H]2C[C@H](N=[N+]=[N-])[C@@H](COC(=O)CN3CCN(c4ccccc4)CC3)O2)c(=O)[nH]c1=O
logD [1]: 0.96

CCCCCCCCc1ccc(OC(=O)Cn2ccc3cc(C(N)=O)ccc32)cc1
logP: 5.5

COc1cc([N+](=O)[O-])cc(CC(=O)N2CCC(n3c(=O)[nH]c4ccccc43)CC2)c1OC
logD [2]: 2.4

COc1cc([N+](=O)[O-])cc(C=CC(=O)N2CCC3(CC2)C(=O)NCN3c2ccccc2)c1OC
logD [2]: 3

CC(C)(C)c1ccc(OP(=O)(Oc2ccccc2)Oc2ccccc2)cc1
logP [3]: 5.12

NC(=O)c1ccc2c(ccn2CC(=O)Oc2ccccc2-c2ccccc2)c1
logP: 2.3

O=C(Cc1c[nH]c2ccc(Br)cc12)N1CCN(c2ccc([N+](=O)[O-])c3nonc23)CC1
logD [2]: 3

O=c1[nH]c2c(O)ccc(CCNCCCS(=O)(=O)CCCOCc3ccccc3)c2s1
logD [4]: 1.34

O=C(Cn1ccc2cc(C(=O)O)ccc21)Oc1cccc(-c2ccccc2)c1
logP: 3.1

CC(C)c1ccc(OP(=O)(Oc2ccccc2)Oc2ccccc2)cc1
logP [3]: 5.31

CC1=C(/C=C/C(C)=C/C=C/C(C)=C/C(=O)OC[C@H]2O[C@@H](n3cc(C)c(=O)[nH]c3=O)C[C@@H]2N=[N+]=[N-])C(C)(C)CCC1
logD [1]: 1.25

CCOCn1c(Cc2ccccc2)c(C(C)C)c(=O)[nH]c1=O
logP [5]: 2.35

O=C(OCc1ccc2snnc2c1)N1CCC2(CC1)C(=O)NCN2c1ccccc1
logD [2]: 3.4

CCOCn1c(Sc2ccccc2)c(CC)c(=O)[nH]c1=O
logP [5]: 2.11

O=c1[nH]c2c(O)ccc(CCNCCCS(=O)(=O)CCOCCc3ccccc3)c2s1
logD [4]: 1.13

CN(CCCSCCOCCc1ccccc1)CCc1ccc(O)c2[nH]c(=O)sc12
logD [4]: 3.53

CCCCCCCCCCOc1ccc(OC(=O)Cn2ccc3cc(C(=O)O)ccc32)cc1
logP: 7.1

O=c1oc2ccc(Cl)cc2cc1C1=Nn2c(COc3ccc(Cl)cc3)nnc2SC1
logD [6]: 1.33

Cc1ccc(OP(=O)(Oc2ccc(C)cc2)Oc2ccc(C)cc2)cc1
logP [3]: 5.11

O=[N+]([O-])c1cc(S(=O)(=O)Nc2ccccc2)ccc1Nc1ccccc1
logP [7]: 3.62

O=c1oc2ccc(Cl)cc2cc1C1=Nn2c(nnc2-c2ccc(Br)cc2)SC1
logD [6]: 1.51

Cc1cn([C@H]2C[C@H](N=[N+]=[N-])[C@@H](COC(=O)CN3CCOCC3)O2)c(=O)[nH]c1=O
logD [1]: 0.34

O=C(CCc1cccc2c1OCO2)N1CCC2(CC1)C(=O)NCN2c1ccccc1
logD [2]: 2.8

Nc1c(Oc2ccccc2)c(Oc2ccccc2)c(N)c2c1C(=O)c1ccccc1C2=O
logP [7]: 5.19

CN(CCCNCCc1ccc(O)c2[nH]c(=O)sc12)S(=O)(=O)CCCOCCc1ccccc1
logD [4]: 1.24

O=C(Cn1ccc2cc(C(=O)O)ccc21)Oc1ccc(-c2ccccc2)cc1
logP: 3.2

CCOCn1c(Cc2cc(C)cc(C)c2)c(CC)c(=O)[nH]c1=O
logP [5]: 2.78

Cc1cn(C2CC(N=[N+]=[N-])C(COC(=O)C(N)Cc3ccccc3)O2)c(=O)[nH]c1=O (stereo not drawn)
logD [1]: 0.52

O=c1oc2ccc(Cl)cc2cc1C1=Nn2c(nnc2-c2ccc(Cl)cc2)SC1
logD [6]: 1.49

O=c1oc2ccc(Cl)cc2cc1C1=Nn2c(nnc2-c2ccccc2Cl)SC1
logD [6]: 1.53

CCOCn1c(S)nc(=O)c(CC)c1Sc1ccccc1
logP [5]: 3.05

CCc1c(Sc2ccccc2)n(COCc2ccccc2)c(=O)[nH]c1=O
logP [5]: 3.23

CC(C)CCCCCCCOP(=O)(Oc1ccccc1)Oc1ccccc1
logP [3]: 5.44

CCCCC(CC)COP(=O)(OCC(CC)CCCC)OCC(CC)CCCC (stereo not drawn)
logP [3]: 4.23

Cc1cn([C@H]2C[C@H](N=[N+]=[N-])[C@@H](COC(=O)C3=CN(C)C=CC3)O2)c(=O)[nH]c1=O
logD [1]: 0.86

O=c1oc2ccc(Cl)cc2cc1C1=Nn2c(nnc2-c2ccncc2)SC1
logD [6]: 1.18

CC(C)(CNCCc1ccc(O)c2[nH]c(=O)sc12)CSCCOCCc1ccccc1
logD [4]: 3.44

Cc1c(O)c(C#N)c(C)c(N=Nc2ccc(Cl)c(Cl)c2)c1O
logP [7]: 3.74
